Source: PMC9978853 (Acta Pharmaceutica Sinica. B, 2022)

Biological target: NAMPT (Mus musculus, UniProt Q99KQ4)
Test: co-crystal structure
Assay type: binding

Chain of NAMPT (Q99KQ4 whole entry): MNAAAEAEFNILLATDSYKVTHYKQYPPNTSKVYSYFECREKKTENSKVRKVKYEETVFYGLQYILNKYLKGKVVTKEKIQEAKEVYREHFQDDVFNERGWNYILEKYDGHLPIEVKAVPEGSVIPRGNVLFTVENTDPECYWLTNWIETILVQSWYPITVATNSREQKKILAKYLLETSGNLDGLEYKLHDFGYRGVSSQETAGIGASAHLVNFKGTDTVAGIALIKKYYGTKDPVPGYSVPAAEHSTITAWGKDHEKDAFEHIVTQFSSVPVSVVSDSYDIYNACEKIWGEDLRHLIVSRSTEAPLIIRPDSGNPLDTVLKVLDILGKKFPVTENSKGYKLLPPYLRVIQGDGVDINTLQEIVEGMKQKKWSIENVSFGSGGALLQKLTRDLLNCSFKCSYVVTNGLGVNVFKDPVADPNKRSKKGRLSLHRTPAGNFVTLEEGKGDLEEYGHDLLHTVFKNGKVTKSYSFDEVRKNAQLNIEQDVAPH

In the case of O=C(NCc1ccc([C@@H]2O[C@H](COP(=O)(O)O)[C@@H](O)[C@H]2O)cc1)Nc1ccc(S(=O)(=O)c2ccccc2)cc1 [9a, ((2R,3S,4R,5S)-3,4-Dihydroxy-5-(4-((3-(4-(phenylsulfonyl)phenyl)ureido)methyl)phenyl)tetrahydrofuran-2-yl)methyldihydrogenphosphate], the co-crystal structure is reported as “Compound 9a bound to dimeric NAMPT (PDB: 7Q8T)”.
